# Target: T1, Bcl-2 protein (Homo sapiens, UniProt P10415, DELINS35-91DVEENRTEAPEGTESE, form not given)
# T1 construct: fused on or other part: Bcl-xL (Q07817) residues 29-44 stand in place of Bcl-2's own unstructured loop 35-91; The C-terminal membrane anchor (208-239) is absent
# Assay: Bcl-2 fluorescence polarization assay (FPA) binding
# Settings: 10 nM Bcl-2 protein, 1 nM fluorescein-labeled BAX peptide, room temperature, read-out: Bcl-2 FPA 11pt Ki
# In short: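 Competitive fluorescence polarization with 10 nM Bcl-2 protein and 1 nM fluorescein-labeled BAX peptide in 20 mM phosphate pH 7.4, 1 mM EDTA, 0.05% PF-68. Compound dilutions in DMSO spanned […] to 10 pM; mix shaken 2 min, polarization read at room temperature (ex 485/em 530 nm); Ki values calculated.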
# T1 sequence (P10415 with tags, fused parts or gaps with the stated changes): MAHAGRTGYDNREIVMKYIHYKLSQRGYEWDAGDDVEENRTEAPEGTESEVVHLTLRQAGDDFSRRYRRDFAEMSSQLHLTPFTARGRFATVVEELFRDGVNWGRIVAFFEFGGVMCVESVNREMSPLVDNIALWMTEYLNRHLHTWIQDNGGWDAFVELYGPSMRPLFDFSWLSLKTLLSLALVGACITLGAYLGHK
row,SMILES,Ki [nM]
1,"CC1(C)[C@H]2CC[C@]1(CS(=O)(=O)NC(=O)c1ccc(N3CCN(Cc4ccccc4-c4ccc(Cl)cc4)CC3)cc1)C(=O)C2 [Example 57, 4-{4-[(4′-chlorobiphenyl-2-yl)methyl]piperazin-1-yl}-N-({[(1R,4S)-7,7-dimethyl-2-oxobicyclo[2.2.1]hept-1-yl]methyl}sulfonyl)benzamide]",134
2,"O=C(NS(=O)(=O)c1ccc(NCC2CCCCC2)c([N+](=O)[O-])c1)c1ccc(N2CCN(CCC34CC5CC(CC(C5)C3)C4)CC2)cc1 [Example 58, 4-(4-{2-[adamantan-1-yl]ethyl}piperazin-1-yl)-N-({4-[(cyclohexylmethyl)amino]-3-nitrophenyl}sulfonyl)benzamide]",> 18700
3,"C[C@@H]1[C@@H](N(Cc2ccc(-c3ccc(C(=O)NS(=O)(=O)c4ccc(NCC5CCCCC5)c([N+](=O)[O-])c4)cc3)cc2)C(=O)CCc2ccccc2)C[C@H]2C[C@@H]1C2(C)C [Example 60, N-({4-[(cyclohexylmethyl)amino]-3-nitrophenyl}sulfonyl)-4′-({(3-phenylpropanoyl)[(1S,2S,3S,5R)-2,6,6-trimethylbicyclo[3.1.1]hept-3-yl]amino}methyl)biphenyl-4-carboxamide]",504
4,"O=C(NS(=O)(=O)c1ccc(NCC2CCOCC2)c([N+](=O)[O-])c1)c1ccc(N2CCN(Cc3ccccc3-c3ccc(-c4nc(-c5ccccc5)cs4)s3)CC2)cc1 [Example 62, N-({3-nitro-4-[(tetrahydro-2H-pyran-4-ylmethyl)amino]phenyl}sulfonyl)-4-(4-{2-[5-(4-phenyl-1,3-thiazol-2-yl)-2-thienyl]benzyl}piperazin-1-yl)benzamide]",281
5,"O=C(NS(=O)(=O)c1ccc(NCC2CCOCC2)c([N+](=O)[O-])c1)c1ccc(N2CCN(Cc3ccccc3-c3ccc(-c4nc(C56CC7CC(CC(C7)C5)C6)cs4)s3)CC2)cc1 [Example 63, 4-[4-(2-{5-[4-(adamantan-1-yl)-1,3-thiazol-2-yl]-2-thienyl}benzyl)piperazin-1-yl]-N-({3-nitro-4-[(tetrahydro-2H-pyran-4-ylmethyl)amino]phenyl}sulfonyl)benzamide]",278
6,"O=C(NS(=O)(=O)c1ccc(NCC2CCOCC2)c([N+](=O)[O-])c1)c1ccc(N2CCN(Cc3ccccc3-c3ccc(C(=O)Nc4ccc5oc(-c6ccccc6)nc5c4)o3)CC2)cc1 [Example 64, 5-{2-[(4-{4-[({3-nitro-4-[(tetrahydro-2H-pyran-4-ylmethyl)amino]phenyl}sulfonyl)carbamoyl]phenyl}piperazin-1-yl)methyl]phenyl}-N-(2-phenyl-1,3-benzoxazol-5-yl)-2-furamide]",1470
7,"O=C(NS(=O)(=O)c1ccc(NCC2CCOCC2)c([N+](=O)[O-])c1)c1ccc(N2CCN(Cc3ccccc3C(=C(c3ccccc3)c3ccccc3)c3ccccc3)CC2)cc1 [Example 65, N-({3-nitro-4-[(tetrahydro-2H-pyran-4-ylmethyl)amino]phenyl}sulfonyl)-4-{4-[2-(triphenylvinyl)benzyl]piperazin-1-yl}benzamide]",928
8,"CC1(C)OB(c2ccccc2CN2CCN(c3ccc(C(=O)NS(=O)(=O)c4ccc(NCC5CCOCC5)c([N+](=O)[O-])c4)cc3)CC2)OC1(C)C [Example 67, N-({3-nitro-4-[(tetrahydro-2H-pyran-4-ylmethyl)amino]phenyl}sulfonyl)-4-{4-[2-(4,4,5,5-tetramethyl-1,3,2-dioxaborolan-2-yl)benzyl]piperazin-1-yl}benzamide]",4040
9,"O=C(NS(=O)(=O)c1ccc(NCC2CCOCC2)c([N+](=O)[O-])c1)c1ccc(N2CCC(=Cc3ccccc3-c3cn(C45CC6CC(CC(C6)C4)C5)nc3C(=O)N(c3ccccc3)c3ccccc3)CC2)cc1 [Example 69, 1-[adamantan-1-yl]-4-{2-[(1-{4-[({3-nitro-4-[(tetrahydro-2H-pyran-4-ylmethyl)amino]phenyl}sulfonyl)carbamoyl]phenyl}piperidin-4-ylidene)methyl]phenyl}-N,N-diphenyl-1H-pyrazole-3-carboxamide]",789
10,"C[C@@H]1[C@@H](Nc2ccc(C=C3CCN(c4ccc(C(=O)NS(=O)(=O)c5ccc(NCC6CCOCC6)c([N+](=O)[O-])c5)cc4)CC3)cc2)C[C@H]2C[C@@H]1C2(C)C [Example 72, N-({3-nitro-4-[(tetrahydro-2H-pyran-4-ylmethyl)amino]phenyl}sulfonyl)-4-[4-(4-{[(1S,2S,3S,5R)-2,6,6-trimethylbicyclo[3.1.1]hept-3-yl]amino}benzylidene)piperidin-1-yl]benzamide]",287

# These reach a lower Ki. Values come first.
row,Ki [nM],SMILES
1,66.7,"CC1(C)[C@@H]2CC[C@@]1(CS(=O)(=O)NC(=O)c1ccc(N3CCN(Cc4ccccc4-c4ccc(Cl)cc4)CC3)cc1)C(=O)C2 [Example 59, 4-{4-[(4′-chlorobiphenyl-2-yl)methyl]piperazin-1-yl}-N-({[(1S,4R)-7,7-dimethyl-2-oxobicyclo[2.2.1]hept-1-yl]methyl}sulfonyl)benzamide]"
2,< 20,"CC1(C)[C@H]2C=C(c3ccccc3C=C3CCN(c4ccc(C(=O)NS(=O)(=O)c5ccc(NCC6CCOCC6)c([N+](=O)[O-])c5)cc4)CC3)[C@]1(C)CC2 [Example 61, N-({3-nitro-4-[(tetrahydro-2H-pyran-4-ylmethyl)amino]phenyl}sulfonyl)-4-(4-{2-[(1R,4R)-1,7,7-trimethylbicyclo[2.2.1]hept-2-en-2-yl]benzylidene}piperidin-1-yl)benzamide]"
3,7.87,"CN1c2ccccc2-c2ccccc2C1c1ccccc1CN1CCN(c2ccc(C(=O)NS(=O)(=O)c3ccc(NCC4CCOCC4)c([N+](=O)[O-])c3)cc2)CC1 (stereo not shown) [Example 66, 4-{4-[2-(5-methyl-5,6-dihydrophenanthridin-6-yl)benzyl]piperazin-1-yl}-N-({3-nitro-4-[(tetrahydro-2H-pyran-4-ylmethyl)amino]phenyl}sulfonyl)benzamide]"
4,92.6,"COc1cccc(OC)c1C(=O)c1sccc1-c1ccccc1C=C1CCN(c2ccc(C(=O)NS(=O)(=O)c3ccc(NCC4CCOCC4)c([N+](=O)[O-])c3)cc2)CC1 [Example 68, 4-(4-{2-[2-(2,6-dimethoxybenzoyl)-3-thienyl]benzylidene}piperidin-1-yl)-N-({3-nitro-4-[(tetrahydro-2H-pyran-4-ylmethyl)amino]phenyl}sulfonyl)benzamide]"
5,35.4,"O=C(NS(=O)(=O)c1ccc(NCC2CCOCC2)c([N+](=O)[O-])c1)c1ccc(N2CCN(Cc3ccccc3N(C(=O)CCc3ccccc3)C3CC4CC3C3CCCC43)CC2)cc1 (stereo not shown) [Example 70, N-({3-nitro-4-[(tetrahydro-2H-pyran-4-ylmethyl)amino]phenyl}sulfonyl)-4-(4-{2-[octahydro-1H-4,7-methanoinden-5-yl(3-phenylpropanoyl)amino]benzyl}piperazin-1-yl)benzamide]"
6,< 20,"O=C(NS(=O)(=O)c1ccc(NCC2CCOCC2)c([N+](=O)[O-])c1)c1ccc(N2CCC(=Cc3ccccc3-c3ccc(CN4C5CCCC4CC5)s3)CC2)cc1 [Example 71, 4-[4-(2-{5-[8-azabicyclo[3.2.1]oct-8-ylmethyl]-2-thienyl}benzylidene)piperidin-1-yl]-N-({3-nitro-4-[(tetrahydro-2H-pyran-4-ylmethyl)amino]phenyl}sulfonyl)benzamide]"

# Reference: US8188077B2, “Apoptosis-inducing agents for the treatment of cancer and immune and autoimmune diseases” (Abbott Laboratories, priority 2010, dated 2012)
